In brackets after ≈: the same amount, converted by molar mass.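 Interpolation was linear, between the two tested concentrations surrounding the appropriate level; five concentrations were tested over 48 hours in 96-well plates. GI50 is the concentration that inhibits growth by half. TGI marks complete inhibition of growth.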
These compounds were tested on EKVX NSCLC (assay: NCI-60 cell line screen, 48 h).
With Oc1cc(Cl)cc2cccnc12 the TGI was greater than 30.1 µM.
Work on COc1cc(N(CCC#N)CCC#N)ccc1/C(N=Nc1ccc(Cl)cc1)=N/NC(=O)c1cc(Br)ccc1O yielded a GI50 of 72.4 µg/mL (≈ 119 µM) and a TGI greater than 150 µg/mL.
For O=[N+]([O-])c1ccc2occ3c2c1CCC3, the TGI was greater than 100 µM.
Cc1c2n(c(=O)[nH]c1=O)C1OC(CO)C(N=[N+]=[N-])C1O2 (stereo not drawn) gave a TGI greater than 100 µM.
For O=C(O)CCNc1ncnc2nc[nH]c12, the TGI was greater than 100 µM.

What follows are compounds tested on MDA-MB-231 breast (assay: NCI-60 cell line screen, 48 h).
Oc1cc(Cl)cc2cccnc12 was tested, and the TGI was 39.7 µM.
Work on COc1cc(N(CCC#N)CCC#N)ccc1/C(N=Nc1ccc(Cl)cc1)=N/NC(=O)c1cc(Br)ccc1O yielded a GI50 of 38.8 µg/mL (≈ 63.7 µM) and a TGI greater than 150 µg/mL.
Compound O=C(O)CCNc1ncnc2nc[nH]c12 has a TGI greater than 100 µM.

These compounds were tested on DMS 273 small cell lung (assay: NCI-60 cell line screen, 48 h).
O=[N+]([O-])c1ccc2occ3c2c1CCC3 was tested, and the TGI was greater than 100 µM.
Cc1c2n(c(=O)[nH]c1=O)C1OC(CO)C(N=[N+]=[N-])C1O2 (stereo not drawn) was tested, and the TGI was greater than 100 µM.

These compounds were tested on T-47D breast (assay: NCI-60 cell line screen, 48 h).
Oc1cc(Cl)cc2cccnc12 showed a TGI of 26.2 µM.
In the case of COc1cc(N(CCC#N)CCC#N)ccc1/C(N=Nc1ccc(Cl)cc1)=N/NC(=O)c1cc(Br)ccc1O, the GI50 is reported as 69.9 µg/mL (≈ 115 µM) and the TGI is reported as greater than 150 µg/mL.
With O=C(O)CCNc1ncnc2nc[nH]c12 the TGI was greater than 100 µM.

Each compound was assayed on HOP-62 NSCLC (assay: NCI-60 cell line screen, 48 h).
Work on Oc1cc(Cl)cc2cccnc12 yielded a TGI greater than 100 µM.
Work on O=[N+]([O-])c1ccc2occ3c2c1CCC3 yielded a TGI greater than 100 µM.
For Cc1c2n(c(=O)[nH]c1=O)C1OC(CO)C(N=[N+]=[N-])C1O2 (stereo not drawn), the TGI was greater than 100 µM.
O=C(O)CCNc1ncnc2nc[nH]c12 was tested, and the TGI was greater than 100 µM.
Nc1c(C(=O)N/N=C/c2ccccc2)sc(=S)n1-c1ccccc1 gave a TGI greater than 100 µM.

The compounds below were run on OVCAR-8 ovarian (assay: NCI-60 cell line screen, 48 h).
For Oc1cc(Cl)cc2cccnc12, the TGI was greater than 100 µM.
Compound COc1cc(N(CCC#N)CCC#N)ccc1/C(N=Nc1ccc(Cl)cc1)=N/NC(=O)c1cc(Br)ccc1O has a GI50 of 39 µg/mL (≈ 64.1 µM) and a TGI of 108 µg/mL.
With O=[N+]([O-])c1ccc2occ3c2c1CCC3 the TGI was greater than 100 µM.
In the case of Cc1c2n(c(=O)[nH]c1=O)C1OC(CO)C(N=[N+]=[N-])C1O2 (stereo not drawn), the TGI is reported as greater than 100 µM.
With O=C(O)CCNc1ncnc2nc[nH]c12 the TGI was greater than 100 µM.
With Nc1c(C(=O)N/N=C/c2ccccc2)sc(=S)n1-c1ccccc1 the TGI was greater than 100 µM.

The compounds below were run on HOP-18 NSCLC (assay: NCI-60 cell line screen, 48 h).
For Nc1c(C(=O)N/N=C/c2ccccc2)sc(=S)n1-c1ccccc1, the TGI was greater than 100 µM.

The compounds below were run on LOX IMVI melanoma (assay: NCI-60 cell line screen, 48 h).
For Oc1cc(Cl)cc2cccnc12, the TGI was 28 µM.
Compound COc1cc(N(CCC#N)CCC#N)ccc1/C(N=Nc1ccc(Cl)cc1)=N/NC(=O)c1cc(Br)ccc1O has a GI50 of 49.3 µg/mL (≈ 81 µM) and a TGI greater than 150 µg/mL.
For O=[N+]([O-])c1ccc2occ3c2c1CCC3, the TGI was greater than 100 µM.
Cc1c2n(c(=O)[nH]c1=O)C1OC(CO)C(N=[N+]=[N-])C1O2 (stereo not drawn) gave a TGI greater than 100 µM.
Compound O=C(O)CCNc1ncnc2nc[nH]c12 has a TGI greater than 100 µM.

Each compound was assayed on UACC-257 melanoma (assay: NCI-60 cell line screen, 48 h).
Oc1cc(Cl)cc2cccnc12 gave a TGI greater than 29.9 µM.
COc1cc(N(CCC#N)CCC#N)ccc1/C(N=Nc1ccc(Cl)cc1)=N/NC(=O)c1cc(Br)ccc1O was tested, and the GI50 was greater than 150 µg/mL and the TGI was greater than 150 µg/mL.
Work on O=[N+]([O-])c1ccc2occ3c2c1CCC3 yielded a TGI greater than 100 µM.
Cc1c2n(c(=O)[nH]c1=O)C1OC(CO)C(N=[N+]=[N-])C1O2 (stereo not drawn) gave a TGI greater than 100 µM.
Compound O=C(O)CCNc1ncnc2nc[nH]c12 has a TGI greater than 100 µM.
Nc1c(C(=O)N/N=C/c2ccccc2)sc(=S)n1-c1ccccc1 was tested, and the TGI was greater than 100 µM.

Each compound was assayed on CAKI-1 renal (assay: NCI-60 cell line screen, 48 h).
Work on Oc1cc(Cl)cc2cccnc12 yielded a TGI greater than 100 µM.
In the case of COc1cc(N(CCC#N)CCC#N)ccc1/C(N=Nc1ccc(Cl)cc1)=N/NC(=O)c1cc(Br)ccc1O, the GI50 is reported as 51.2 µg/mL (≈ 84.1 µM) and the TGI is reported as greater than 150 µg/mL.
Cc1c2n(c(=O)[nH]c1=O)C1OC(CO)C(N=[N+]=[N-])C1O2 (stereo not drawn) was tested, and the TGI was greater than 100 µM.
With O=C(O)CCNc1ncnc2nc[nH]c12 the TGI was greater than 100 µM.

What follows are compounds tested on HCT-15 colon (assay: NCI-60 cell line screen, 48 h).
Work on Oc1cc(Cl)cc2cccnc12 yielded a TGI greater than 100 µM.
COc1cc(N(CCC#N)CCC#N)ccc1/C(N=Nc1ccc(Cl)cc1)=N/NC(=O)c1cc(Br)ccc1O showed a GI50 of 32.7 µg/mL (≈ 53.8 µM) and a TGI of 66.4 µg/mL.
Work on O=[N+]([O-])c1ccc2occ3c2c1CCC3 yielded a TGI greater than 100 µM.
Cc1c2n(c(=O)[nH]c1=O)C1OC(CO)C(N=[N+]=[N-])C1O2 (stereo not drawn) gave a TGI greater than 100 µM.
O=C(O)CCNc1ncnc2nc[nH]c12 was tested, and the TGI was greater than 100 µM.

Each compound was assayed on SW-620 colon (assay: NCI-60 cell line screen, 48 h).
Oc1cc(Cl)cc2cccnc12 showed a TGI of 19.7 µM.
In the case of COc1cc(N(CCC#N)CCC#N)ccc1/C(N=Nc1ccc(Cl)cc1)=N/NC(=O)c1cc(Br)ccc1O, the GI50 is reported as greater than 150 µg/mL and the TGI is reported as greater than 150 µg/mL.
In the case of O=[N+]([O-])c1ccc2occ3c2c1CCC3, the TGI is reported as greater than 100 µM.
Cc1c2n(c(=O)[nH]c1=O)C1OC(CO)C(N=[N+]=[N-])C1O2 (stereo not drawn) gave a TGI greater than 100 µM.
Work on O=C(O)CCNc1ncnc2nc[nH]c12 yielded a TGI greater than 100 µM.
Compound Nc1c(C(=O)N/N=C/c2ccccc2)sc(=S)n1-c1ccccc1 has a TGI greater than 100 µM.

What follows are compounds tested on SN12C renal (assay: NCI-60 cell line screen, 48 h).
Oc1cc(Cl)cc2cccnc12 showed a TGI greater than 100 µM.
Compound COc1cc(N(CCC#N)CCC#N)ccc1/C(N=Nc1ccc(Cl)cc1)=N/NC(=O)c1cc(Br)ccc1O has a GI50 of 88.4 µg/mL (≈ 145 µM) and a TGI greater than 150 µg/mL.
Compound O=[N+]([O-])c1ccc2occ3c2c1CCC3 has a TGI greater than 100 µM.
With Cc1c2n(c(=O)[nH]c1=O)C1OC(CO)C(N=[N+]=[N-])C1O2 (stereo not drawn) the TGI was greater than 100 µM.
Work on O=C(O)CCNc1ncnc2nc[nH]c12 yielded a TGI greater than 100 µM.

Each compound was assayed on MALME-3M melanoma (assay: NCI-60 cell line screen, 48 h).
Work on Oc1cc(Cl)cc2cccnc12 yielded a TGI of 54.5 µM.
COc1cc(N(CCC#N)CCC#N)ccc1/C(N=Nc1ccc(Cl)cc1)=N/NC(=O)c1cc(Br)ccc1O gave a GI50 greater than 150 µg/mL and a TGI greater than 150 µg/mL.
With O=[N+]([O-])c1ccc2occ3c2c1CCC3 the TGI was greater than 100 µM.
For O=C(O)CCNc1ncnc2nc[nH]c12, the TGI was greater than 100 µM.

Each compound was assayed on IGROV1 ovarian (assay: NCI-60 cell line screen, 48 h).
Oc1cc(Cl)cc2cccnc12 showed a TGI of 5.12 µM.
Compound COc1cc(N(CCC#N)CCC#N)ccc1/C(N=Nc1ccc(Cl)cc1)=N/NC(=O)c1cc(Br)ccc1O has a GI50 of 54.5 µg/mL (≈ 89.5 µM) and a TGI greater than 150 µg/mL.
Compound O=[N+]([O-])c1ccc2occ3c2c1CCC3 has a TGI greater than 100 µM.
Compound Cc1c2n(c(=O)[nH]c1=O)C1OC(CO)C(N=[N+]=[N-])C1O2 (stereo not drawn) has a TGI greater than 100 µM.
O=C(O)CCNc1ncnc2nc[nH]c12 showed a TGI greater than 100 µM.
Nc1c(C(=O)N/N=C/c2ccccc2)sc(=S)n1-c1ccccc1 was tested, and the TGI was greater than 100 µM.

What follows are compounds tested on A549 NSCLC (assay: NCI-60 cell line screen, 48 h).
Oc1cc(Cl)cc2cccnc12 gave a TGI greater than 100 µM.
For COc1cc(N(CCC#N)CCC#N)ccc1/C(N=Nc1ccc(Cl)cc1)=N/NC(=O)c1cc(Br)ccc1O, the GI50 was 85.5 µg/mL (≈ 140 µM) and the TGI was greater than 150 µg/mL.
O=[N+]([O-])c1ccc2occ3c2c1CCC3 showed a TGI greater than 100 µM.
For Cc1c2n(c(=O)[nH]c1=O)C1OC(CO)C(N=[N+]=[N-])C1O2 (stereo not drawn), the TGI was greater than 100 µM.
Compound O=C(O)CCNc1ncnc2nc[nH]c12 has a TGI greater than 100 µM.
With Nc1c(C(=O)N/N=C/c2ccccc2)sc(=S)n1-c1ccccc1 the TGI was greater than 100 µM.

Each compound was assayed on UO-31 renal (assay: NCI-60 cell line screen, 48 h).
With Oc1cc(Cl)cc2cccnc12 the TGI was greater than 100 µM.
In the case of COc1cc(N(CCC#N)CCC#N)ccc1/C(N=Nc1ccc(Cl)cc1)=N/NC(=O)c1cc(Br)ccc1O, the GI50 is reported as 86.6 µg/mL (≈ 142 µM) and the TGI is reported as greater than 150 µg/mL.
O=[N+]([O-])c1ccc2occ3c2c1CCC3 gave a TGI greater than 100 µM.
For Cc1c2n(c(=O)[nH]c1=O)C1OC(CO)C(N=[N+]=[N-])C1O2 (stereo not drawn), the TGI was greater than 100 µM.
In the case of O=C(O)CCNc1ncnc2nc[nH]c12, the TGI is reported as greater than 100 µM.
Work on Nc1c(C(=O)N/N=C/c2ccccc2)sc(=S)n1-c1ccccc1 yielded a TGI greater than 100 µM.

The compounds below were run on NCI/ADR-RES ovarian (assay: NCI-60 cell line screen, 48 h).
For Oc1cc(Cl)cc2cccnc12, the TGI was 5.37 µM.

— PubChem BioAssay (NCI)
